In patent publication US20210308034A1, “PREBIOTIC COMPOSITIONS AND METHODS FOR MAINTAINING A HEALTHY SKIN MICROBIOTA” (KIMBERLY-CLARK WORLDWIDE, INC., priority 2018, published 2021):

What was measured:
Assay type in all cases: cell-based
[1] = test system: Staphylococcus epidermidis (ATCC 14990); assay: Carbohydrate Screening Test Method (Biolog phenotype microarray), Bacteria Code I; conditions: Commensal; carbon microarray plate, OD 600 nm, 36 hr, 33° C.; positive = more than 0.05 OD units above zero; blank cell = not utilized
Source text: (§1) After creating desired ratios of various commensal skin bacteria in a healthy skin microbiome, 188 different carbohydrate sources were screened as the next step in determining potential prospects for skin microbiota balancing agents. The screening process was set up to determine which carbohydrate sources promoted commensal and/or pathogenic bacteria as well as to obtain individual and combinations of carbohydrate sources that could serve as microbiota balancing agents that can support or maintain the healthy proportions of commensal skin bacteria of Corynebacterium, Staphylococcus, and Micrococcus. The screening was conducted utilizing Biolog phenotype microarray plates (Hayward, Calif.). Table 1 provides a coded list of the commensal and pathogenic skin bacteria that the carbohydrates were screened against.
Table 2 provides the results of screening various carbohydrate sources against the commensal and pathogenic bacteria codes listed in Table 1. The Bacteria Codes B, D, E, I, and J are commensal bacteria and are shaded in Table 2 for references purposes. The bacteria codes were each placed in a carbon microarray plate and screened through the Carbohydrate Screening Test Method, as described in the Test Methods section herein. If a particular bacteria code utilized a specific carbohydrate source as described in the Carbohydrate Screening Test Method, then the corresponding cell in Table 2 was marked with a Y (short for “Yes”). […] Many of the carbohydrate sources were utilized by both commensal and pathogenic bacteria, and as such, would not provide an advantage for selective growth of the commensal bacteria. However, some of the carbohydrate sources were only used by commensal bacteria and were identified for further testing as described herein.
(§2) The study employed 10 representative skin bacteria; Staphylococcus epidermidis ATCC 14990, Staphylococcus epidermidis M23864:W2, Staphylococcus aureus ATCC 6538, Staphylococcus aureus ATCC 25904 (Newman), Pseudomonas aeruginosa ATCC 9027, Micrococcus luteus ATCC […], Micrococcus luteus SK58, Klebsiella pneumoniae ATCC BAA-2146, Corynebacterium amycolatum SK46, and Corynebacterium minutissimum ATCC 23348. Cultures were started from freezer bead stocks by placing a single bead into 20 mL of tryptic soy broth (TSB) for all organisms except C. amycolatum SK46 and C. minutissimum ATCC 23348, which were placed into brain heart infusion (BHI) broth. Cultures were grown for about 24 hr at 37° C. except M. luteus ATCC 49732 and M. luteus SK58, which were grown at 30° C. A passage of the culture was made using a sterile swab and streaked onto two M9*2 agar plates to prepare the incubated culture for the phenotype microarray pate according to Table 4. Plates were incubated for about 24 hr at 37° C. except for M. luteus ATCC 49732 and M. luteus SK58, which were incubated at 30° C. for 24 hr.
(§3) All cultures were harvested and washed before inoculation into the carbon microarray plate (BiOLOG, Hayward Calif.), with Biolog Plates PM1 and PM2 each having a source definition of Carbon. The bacteria on the M9*2 agar was suspended via agitation with an inoculating loop in 1 mL of M9*1 media for collection in a 1.7 mL micro centrifuge tube, as noted in Table 4. The bacteria was suspended again in M9*1 media, agitated, and collected into the same 1.7 mL microcentrifuge tube used in the previous step. The tube was centrifuged for 5 minutes at 4,000×G, supernatant decanted, the pellet was resuspended in 1 mL of M9*1 media, and vortex. This washing process was repeated for a total of 4 times.
A tenfold dilution in M9*1 media was performed using 1 mL of the washed bacterial culture. Of the tenfold dilution 200 μL was placed in an untreated 96-well plate (Falcon, Pasadena Tx.) for an initial optical density (OD) reading at a wavelength of 600 nm. The OD was used to correlate to colony forming units (CFU) per milliliter by using linear regression lines for each organism. […]

[2] = test system: Staphylococcus epidermidis (M23864:W2); assay: Carbohydrate Screening Test Method (Biolog phenotype microarray), Bacteria Code J; conditions: Commensal; carbon microarray plate, OD 600 nm, 36 hr, 33° C.; positive = more than 0.05 OD units above zero; blank cell = not utilized
Source text: as §1
(§4) The Bacteria Codes B, D, E, I, and J are commensal bacteria and are shaded in Table 2 for references purposes. The bacteria codes were each placed in a carbon microarray plate and screened through the Carbohydrate Screening Test Method, as described in the Test Methods section herein. If a particular bacteria code utilized a specific carbohydrate source as described in the Carbohydrate Screening Test Method, then the corresponding cell in Table 2 was marked with a Y (short for “Yes”).
To do so, the respective microarray data for the 79 carbohydrate sources was run through the GrowthRates 2.1 program to obtain growth parameters, such as growth rates and maximum yield data as described by the Belingham Research Institute, Hall, B. G., H. Acar and M. Barlow. 2014 Growth Rates Made Easy. Mol. Biol. Evol. 31:232-238 doi:10.1093/molbev/mst197. The max yield parameters generated were utilized to calculate ratios of tested commensal bacteria. The ratios calculated were compared back to the desired ratios identified above (Corynebacterium to Staphylococcus of 1.3, Corynebacterium to Micrococcus of 1.4, and Staphylococcus to Micrococcus of 1.1).
As an example of this methodology used to calculate the commensal bacteria ratios and the difference between the calculated ratios and the desired ratios, an example code from Table 3 will be described. […] The max yields were then used to calculate ratios the bacteria would reach in a co-culture.

[3] = test system: Micrococcus luteus (SK58); assay: Carbohydrate Screening Test Method (Biolog phenotype microarray), Bacteria Code E; conditions: Commensal; carbon microarray plate, OD 600 nm, 36 hr, 33° C.; positive = more than 0.05 OD units above zero; blank cell = not utilized
Outline: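 Each commensal strain grown in Biolog carbon phenotype microarray plates with single carbohydrate sources. Growth curves fitted with GrowthRates 2.1 to give growth rate and maximum yield. Max yields used to calculate predicted co-culture ratios between Corynebacterium, Staphylococcus and Micrococcus, compared with desired ratios of 1.3, 1.4 and 1.1.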

[4] = test system: Corynebacterium jeikum (ATCC 33033); assay: Carbohydrate Screening Test Method (Biolog phenotype microarray), Bacteria Code B; conditions: Commensal; carbon microarray plate, OD 600 nm, 36 hr, 33° C.; positive = more than 0.05 OD units above zero; blank cell = not utilized
Outline: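 Strain from M9*2 agar was suspended in M9*1 medium, washed and inoculated into Biolog PM1/PM2 carbon plates. Carbohydrate use was scored yes/no, and growth rate and maximum yield were derived with GrowthRates 2.1, with max yields used for commensal ratios.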

[5] = test system: Klebsiella pneumoniae (ATCC BAA-2146); conditions: Pathogenic; carbon microarray plate, OD 600 nm, 36 hr, 33° C.; positive = more than 0.05 OD units above zero; blank cell = not utilized
[6] = test system: commensal and pathogenic skin bacteria; assay: Carbohydrate Screening Test Method, all bacteria codes tested; conditions: ten bacteria codes of Table 1
Source text: as §1, §4, §2, §3
A tenfold dilution in M9*1 media was performed using 1 mL of the washed bacterial culture.

[7] = test system: Pseudomonas aeruginosa (ATCC 9027); conditions: Pathogenic; carbon microarray plate, OD 600 nm, 36 hr, 33° C.; positive = more than 0.05 OD units above zero; blank cell = not utilized
Outline: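 Carbon-source utilisation screen on Biolog PM1/PM2 plates: strain grown in TSB then on M9*2 agar, each ~24 h at 37 °C, washed four times in M9*1 and diluted tenfold. OD600 correlated to CFU/mL; each carbohydrate scored Yes when utilised.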

O=C(O)CCCCCCCCC(=O)O [Sebacic Acid]
Carbohydrate Screening Results, Bacteria Code I [1]: Y | Carbohydrate Screening Results, Bacteria Code J [2]: Y

Pectin
Carbohydrate Screening Results, Bacteria Code I [1]: Y | Carbohydrate Screening Results, Bacteria Code J [2]: Y

O=C(CO)[C@@H](O[C@H]1O[C@H](CO)[C@@H](O)[C@H](O)[C@H]1O)[C@H](O)[C@H](O)CO [Turanose]
Carbohydrate Screening Results, Bacteria Code I [1]: Y

CC(=O)C(C)O (stereo not drawn) [3-Hydroxy 2-Butanone]
Carbohydrate Screening Results, Bacteria Code I [1]: Y | Carbohydrate Screening Results, Bacteria Code J [2]: Y

OC[C@H]1O[C@@H]2O[C@H]3[C@H](O)[C@@H](O)[C@@H](O[C@H]4[C@H](O)[C@@H](O)[C@@H](O[C@H]5[C@H](O)[C@@H](O)[C@@H](O[C@H]6[C@H](O)[C@@H](O)[C@@H](O[C@H]7[C@H](O)[C@@H](O)[C@@H](O[C@H]1[C@H](O)[C@H]2O)O[C@@H]7CO)O[C@@H]6CO)O[C@@H]5CO)O[C@@H]4CO)O[C@@H]3CO [α-Cyclodextrin]
Carbohydrate Screening Results, Bacteria Code I [1]: Y | Carbohydrate Screening Results, Bacteria Code J [2]: Y

Inulin
Carbohydrate Screening Results, Bacteria Code I [1]: Y | Carbohydrate Screening Results, Bacteria Code J [2]: Y

O=C(O)C[C@@H](O)C(=O)O [D-Malic Acid]
Carbohydrate Screening Results, Bacteria Code I [1]: Y | Carbohydrate Screening Results, Bacteria Code E [3]: Y | Carbohydrate Screening Results, Bacteria Code B [4]: Y

O=C(O)C(=O)O [Oxalic Acid]
Carbohydrate Screening Results, Bacteria Code I [1]: Y | Carbohydrate Screening Results, Bacteria Code J [2]: Y

CC(O)C(C)O (stereo not drawn) [2,3-Butanediol]
Carbohydrate Screening Results, Bacteria Code I [1]: Y | Carbohydrate Screening Results, Bacteria Code J [2]: Y

NCCCC(=O)O [γ-Amino Butyric Acid]
Carbohydrate Screening Results, Bacteria Code I [1]: Y | Carbohydrate Screening Results, Bacteria Code J [2]: Y

OC[C@H]1O[C@@H](O[C@H]2[C@H](O)[C@@H](O)[C@H](O)O[C@@H]2CO)[C@H](O)[C@@H](O)[C@@H]1O [D-Cellobiose]
Carbohydrate Screening Results, Bacteria Code I [1]: Y | Carbohydrate Screening Results, Bacteria Code C [5]: Y | Carbohydrate Screening Results, Bacteria Code E [3]: Y | Carbohydrate Screening Results, Bacteria Code B [4]: Y

N[C@@H](CCO)C(=O)O [L-Homoserine]
Carbohydrate Screening Results, Bacteria Code I [1]: Y

O=C(CO)[C@@H](O)[C@@H](O)[C@H](O)CO [D-Tagatose]
utilization by the bacteria codes tested [6]: not utilized by any of the bacteria

C[C@@H](O)[C@H](O)[C@H](O)[C@@H](O)C=O [D-Fucose]
utilization by the bacteria codes tested [6]: not utilized by any of the bacteria

CC(=O)N[C@H]1[C@H]([C@H](O)[C@H](O)CO)OC(O)(C(=O)O)C[C@@H]1O (stereo partly drawn) [N-Acetyl-Neuraminic Acid]
utilization by the bacteria codes tested [6]: not utilized by any of the bacteria

CC(C)[C@H](N)C(=O)O [L-Valine]
utilization by the bacteria codes tested [6]: not utilized by any of the bacteria

CC(O)CC(=O)O (stereo not drawn) [β-Hydroxy Butyric Acid]
Carbohydrate Screening Results, Bacteria Code I [1]: Y | Carbohydrate Screening Results, Bacteria Code F [7]: Y

O=CC[C@H](O)[C@H](O)CO [2-Deoxy-D-Ribose]
utilization by the bacteria codes tested [6]: not utilized by any of the bacteria

COC(=O)CCC(=O)O [Mono Methyl Succinate]
Carbohydrate Screening Results, Bacteria Code I [1]: Y | Carbohydrate Screening Results, Bacteria Code E [3]: Y | Carbohydrate Screening Results, Bacteria Code B [4]: Y

OC[C@@]12OC[C@@H](O1)[C@@H](O)[C@@H](O)[C@@H]2O [Sedoheptulosan]
utilization by the bacteria codes tested [6]: not utilized by any of the bacteria

Tween 80
Carbohydrate Screening Results, Bacteria Code I [1]: Y | Carbohydrate Screening Results, Bacteria Code E [3]: Y | Carbohydrate Screening Results, Bacteria Code B [4]: Y
